Target: T1, visual cycle isomerase (Bos taurus, UniProt Q28175)
T1 construct: Bovine Retinal Pigment Epithelium (RPE) microsome membranes were the source of a visual cycle isomerase; from tissue; host or cells: bovine retinal pigment epithelium microsome membranes; CRALBP made in E. coli
T1 sequence (Q28175 2-533 limits assumed): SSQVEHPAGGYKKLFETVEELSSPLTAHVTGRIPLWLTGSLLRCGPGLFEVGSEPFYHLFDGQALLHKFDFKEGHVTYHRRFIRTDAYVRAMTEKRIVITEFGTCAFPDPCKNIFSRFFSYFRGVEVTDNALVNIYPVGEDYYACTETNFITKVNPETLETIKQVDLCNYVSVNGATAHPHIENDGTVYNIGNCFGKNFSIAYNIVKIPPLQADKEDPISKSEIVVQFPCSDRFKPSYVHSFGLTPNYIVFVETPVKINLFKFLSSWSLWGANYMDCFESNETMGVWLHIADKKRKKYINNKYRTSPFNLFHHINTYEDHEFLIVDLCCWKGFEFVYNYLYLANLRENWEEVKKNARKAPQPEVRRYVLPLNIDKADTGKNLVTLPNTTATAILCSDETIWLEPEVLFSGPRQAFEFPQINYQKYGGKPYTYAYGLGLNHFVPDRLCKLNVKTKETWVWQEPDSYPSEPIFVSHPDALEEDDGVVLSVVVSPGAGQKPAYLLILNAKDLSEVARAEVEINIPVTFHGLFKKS
Experiment: In vitro isomerase inhibition assay, bovine RPE microsome membranes
Assay type: biochemical
Conditions: inhibition of 11-cis retinol formation; values given as ranges
Description: The capability of amine derivative compounds to inhibit the activity of a visual cycle isomerase was determined
Isomerase inhibition reactions were performed essentially as described (Stecher et al., J. Biol. Chem. 274:8577-85 (1999); see also Golczak et al., Proc. Natl. Acad. Sci. USA 102:8162-67 (2005)). Bovine Retinal Pigment Epithelium (RPE) microsome membranes were the source of a visual cycle isomerase.
Bovine RPE microsome membrane extracts were prepared according to methods described (Golczak et al., Proc. Natl. Acad. Sci. USA 102:8162-67 (2005)) and stored at −80° C. Crude RPE microsome extracts were thawed in a 37° C. water bath, and then immediately placed on ice. 50 ml crude RPE microsomes were placed into a 50 ml Teflon-glass homogenizer (Fisher Scientific, catalog no. 0841416M) on ice, powered by a hand-held DeWalt drill, and homogenized ten times upand down on ice under maximum speed. This process was repeated until the crude RPE microsome solution was homogenized. The homogenate was then subjected to centrifugation (50.2 Ti rotor (Beckman, Fullerton, Calif.), 13,000 RPM; 15360 Rcf) for 15 minutes at 4° C. The supernatant was collected and subjected to centrifugation at 42,000 RPM (160,000 Rcf; 50.2 Ti rotor) for 1 hour at 4° C. The supernatant was removed, and the pellets were suspended in 12 ml (final volume) cold 10 mM MOPS buffer, pH 7.0. The resuspended RPE membranes in 5 ml aliquots were homogenized in a glass-to-glass homogenizer (Fisher Scientific, catalog no.K885500-0021) to high homogeneity. Protein concentration was quantified using the BCA protein assay according to the manufacturer's protocol (Pierce, Rockford, Ill.). The homogenized RPE preparations were stored at −80° C.
Recombinant human apo cellular retinaldehyde-binding protein (CRALBP) was cloned and expressed according to standard methods in the molecular biology art (see Crabb et al., Protein Science 7:746-57 (1998); Crabb et al., J. Biol. Chem. 263:18688-92 (1988)). Briefly, total RNA was prepared from confluent ARPE^19 cells (American Type Culture Collection, Manassas, Va.), cDNA was synthesized using an oligo(dT)12-18 primer, and then DNA encoding CRALBP was amplified by two sequential polymerase chain reactions (see Crabb et al., J. Biol. Chem. 263:18688-92 (1988); Intres, et al., J. Biol. Chem. 269:25411-18 (1994); GenBank Accession No. L34219.1). The PCR product was sub-cloned into pTrcHis2-TOPO TA vector according to the manufacturer's protocol (Invitrogen Inc., Carlsbad, Calif.; catalog no. K4400-01), and then the sequence was confirmed according to standard nucleotide sequencing techniques. Recombinant 6×His-tagged human CRALBP was expressed in One Shot TOP 10 chemically competent E. coli cells (Invitrogen), and the recombinant polypeptide was isolated from E. coli cell lysates by nickel affinity chromatography using nickel (Ni) Sepharose XK16-20 columns for HPLC (Amersham Bioscience, Pittsburgh, Pa.; catalog no.17-5268-O2). The purified 6×His-tagged human CRALBP was dialyzed against 10 mM bis-tris-Propane (BTP) and analyzed by SDS-PAGE. The molecular weight of the recombinant human CRALBP was approximately 39 kDal.
Amine derivative compounds and control compounds were reconstituted in ethanol to 0.1 M. Ten-fold serial dilutions (10^−2, 10^−3, 10^−4, 10^−5, 10^−6 M) in ethanol of each compound were prepared for analysis in the isomerase assay.
The isomerase assay was performed in 10 mM bis-tris-propane (BTP) buffer, pH 7.5, 0.5% BSA (diluted in BTP buffer), 1 mM sodium pyrophosphate, 20 μM all-trans retinol (in ethanol), and 6 μM apo-CRALBP. The test compounds (2 μl) (final 1/15 dilution of serial dilution stocks) were added to the above reaction mixture to which RPE microsomes were added. The same volume of ethanol was added to the control reaction (absence of test compound). Bovine RPE microsomes (9 μl) (see above) were then added, and the mixtures transferred to 37° C. to initiate the reaction (total volume=150 μl). […]

Row | SMILES | IC50
1 | CCCC(O)(CCC)CCc1cccc(CCCN)c1 [Example 3, 4-(3-(3-aminopropyl)phenethyl)heptan-4-ol] | ≤ 1 µM
2 | NCCCc1cccc(CCC2(O)CCCCC2)c1 [Example 7, 1-(3-(3-aminopropyl)phenethyl)cyclohexanol] | ≤ 1 µM
3 | CCCC(O)(CCC)CCc1cccc(OCCN)c1 [Example 9, 4-(3-(2-aminoethoxy)phenethyl)heptan-4-ol] | ≤ 1 µM
4 | NCCOc1cccc(CCC2(O)CCCCCC2)c1 [Example 10, 1-(3-(2-aminoethoxy)phenethyl)cycloheptanol] | ≤ 1 µM
5 | NCCOc1cccc(CCC2(O)CCSCC2)c1 [Example 11, 4-(3-(2-aminoethoxy)phenethyl)tetrahydro-2H-thiopyran-4-ol] | ≤ 1 µM
6 | NCCOc1cccc(CCC2(O)CCCCC2)c1 [Example 12, 1-(3-(2-aminoethoxy)phenethyl)cyclohexanol] | ≤ 1 µM
7 | NCCC(O)c1cccc(CCC2(O)CCCCC2)c1 (centres unmarked) [Example 15, 1-(3-(3-amino-1-hydroxypropyl)phenethyl)cyclohexanol] | ≤ 1 µM
8 | NCCC(O)c1cccc(CCC2(O)CCCCCC2)c1 (centres unmarked) [Example 16, 1-(3-(3-amino-1-hydroxypropyl)phenethyl)cycloheptanol] | ≤ 1 µM
9 | NCCC(O)c1cccc(CCC2CCCC2)c1 (centres unmarked) [Example 17, 3-amino-1-(3-(2-cyclopentylethyl)phenyl)propan-1-ol] | ≤ 1 µM
10 | CCCC(O)(CCC)CCc1cccc(C(O)CCN)c1 (centres unmarked) [Example 19, 4-(3-(3-amino-1-hydroxypropyl)phenethyl)heptan-4-ol] | ≤ 1 µM
11 | NCCCc1cccc(CCC2(O)CCCCCC2)c1 [Example 20, 1-(3-(3-aminopropyl)phenethyl)cycloheptanol] | ≤ 1 µM
12 | CCCCCc1cccc(CCCN)c1 [Example 27, 3-(3-pentylphenyl)propan-1-amine] | ≤ 1 µM
13 | CC(C)(C)CCc1cccc(CCCN)c1 [Example 29, 3-(3-(3,3-dimethylbutyl)phenyl)propan-1-amine] | ≤ 1 µM
14 | NCCCc1cccc(CCCCc2ccccc2)c1 [Example 35, 3-(3-(4-phenylbutyl)phenyl)propan-1-amine] | ≤ 1 µM

Reference: patent US8450527B2, “Amine derivative compounds for treating ophthalmic diseases and disorders” (Acucela Inc., priority 2007, dated 2013)
